Results reported in patent publication EP4378525A1, “NON PEPTIDERGIC AGONISTS OF OXYTOCIN RECEPTOR” (Université de Strasbourg, priority 2022, dated 2024).
Where two headings read alike, the source gives them in different places.

Columns and labels:
oxytocin receptor = target: T1, oxytocin receptor (Homo sapiens, UniProt P30559); experiment: IP-One IP1 accumulation assay in CHO cell lines expressing oxytocin receptor (agonist activation); format: cell-based; conditions: n=3; for Emax: CHO, percentage of the endogenous agonist maximal stimulation, read-out: OT-R Emax
T1 construct: expressed in transfected cells; host or cells: CHO cell lines
T1 sequence (P30559 1-389): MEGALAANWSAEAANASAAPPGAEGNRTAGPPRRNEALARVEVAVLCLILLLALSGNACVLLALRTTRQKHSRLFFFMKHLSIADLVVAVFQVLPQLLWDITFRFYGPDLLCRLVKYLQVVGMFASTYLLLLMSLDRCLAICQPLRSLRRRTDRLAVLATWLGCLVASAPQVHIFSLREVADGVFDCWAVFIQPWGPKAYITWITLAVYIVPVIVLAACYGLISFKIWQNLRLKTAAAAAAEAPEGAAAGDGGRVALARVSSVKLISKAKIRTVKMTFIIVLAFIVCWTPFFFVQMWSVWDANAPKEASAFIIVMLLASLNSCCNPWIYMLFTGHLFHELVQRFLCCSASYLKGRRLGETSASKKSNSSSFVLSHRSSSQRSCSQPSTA
Experimental: The activation constants (EC50 in nM) were measured in CHO cell lines expressing oxytocin receptor by IP-One IP1 accumulation assay. These values are the mean ± SEM of at least three separate experiments performed in triplicate. […] When there is only a weak stimulation, results are expressed as percentages of the endogenous agonist maximal stimulation at [ligand] = 1 µM (n = 2). Results are not significant (ns) when there is <10% response at [ligand] = 1 µM (n = 2).

V1A-R = V1A-R (Homo sapiens, UniProt P37288); experiment: V1A receptor antagonist assay measured as calcium signal; format: cell-based; conditions: n=3; for Ratio V1A/OT: V1A-R IC50 / OT-R EC50; for IC50: antagonist, calcium signal, read-out: V1A-R (Antago) IC50
V1A-R, sequence (P37288 whole entry, species assumed): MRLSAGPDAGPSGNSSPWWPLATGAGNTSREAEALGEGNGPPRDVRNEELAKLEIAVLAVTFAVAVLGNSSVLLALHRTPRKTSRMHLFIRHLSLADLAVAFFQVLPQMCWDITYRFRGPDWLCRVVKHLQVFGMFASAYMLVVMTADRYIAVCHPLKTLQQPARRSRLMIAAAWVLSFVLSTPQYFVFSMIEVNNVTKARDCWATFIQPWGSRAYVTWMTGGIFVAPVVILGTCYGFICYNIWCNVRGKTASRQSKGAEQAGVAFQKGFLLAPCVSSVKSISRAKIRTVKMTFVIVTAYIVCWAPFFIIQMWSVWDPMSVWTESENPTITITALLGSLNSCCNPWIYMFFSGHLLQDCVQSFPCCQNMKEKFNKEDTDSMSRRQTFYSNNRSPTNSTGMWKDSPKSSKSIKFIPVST
From the text: Comparison of efficacy as OT receptor agonist (measured as described in example 2), or as VIA receptor antagonist (measured as calcium signal, as follows), has been performed.

[1] = in vivo; cited from earlier work
[2] = CHO cell lines expressing oxytocin receptor, IP1 accumulation, read-out: OT-R EC50
[3] = selectivity table, measured as described in example 2, read-out: OT-R (Ago) EC50

| Compound | Emax (oxytocin receptor) | EC50 (oxytocin receptor; [2]) | Ratio V1A/OT (V1A-R) | IC50 (V1A-R) | EC50 (oxytocin receptor; [3]) | half-life in blood [1] |
| --- | --- | --- | --- | --- | --- | --- |
| Cc1cc(C(=O)N2Cc3cnn(C)c3Nc3ccccc32)ccc1CNC(=O)N1C[C@H](N=[N+]=[N-])C[C@H]1C(=S)N(C)C [Compound 2] | 80% | 39.1 nM | – | – | – | – |
| Cc1cc(C(=O)N2Cc3cnn(C)c3Nc3ccccc32)ccc1CNC(=O)N1C[C@@H](n2cc(CO)nn2)C[C@H]1C(=S)N(C)C [Compound 6] | 100% | 0.7 nM | 117 | 131 nM | 1.12 nM | – |
| Cc1cc(C(=O)N2Cc3cnn(C)c3Nc3ccccc32)ccc1CNC(=O)N1C[C@H](n2cc(CN)nn2)C[C@H]1C(=S)N(C)C [Compound 8] | 120% | 33 nM | – | – | – | – |
| Cc1cc(C(=O)N2Cc3cnn(C)c3Nc3ccccc32)ccc1CNC(=O)N1C[C@H](n2cc(COCCOCCO)nn2)C[C@H]1C(=S)N(C)C [Compound 14] | – | 10 nM | – | – | – | – |
| CCCc1cn([C@@H]2C[C@@H](C(=S)N(C)C)N(C(=O)NCc3ccc(C(=O)N4Cc5cnn(C)c5Nc5ccccc54)cc3C)C2)nn1 [Compound 19] | – | 31 nM | – | – | – | – |
| Cc1cc(C(=O)N2Cc3cnn(C)c3Nc3ccccc32)ccc1CNC(=O)N1CCC[C@H]1C(=S)N(C)C [Reference, reference compound] | 96.7% | 45.1 nM | 7.7 | 346 nM | 45.1 nM | – |
| oxytocin [OT] | – | – | – | – | – | about 3 minutes |
